{"source": "ChEMBL document CHEMBL1148305", "about": "“5-substituted derivatives of 6-halogeno-3-((2-(S)-azetidinyl)methoxy)pyridine and 6-halogeno-3-((2-(S)-pyrrolidinyl)methoxy)pyridine with low picomolar affinity for alpha4beta2 nicotinic acetylcholine receptor and wide range of lipophilicity: potential probes for imaging with positron emission …” (J Med Chem, 2004)", "data": [{"target": "Neuronal acetylcholine receptor; alpha4/beta2 (Rattus norvegicus, UniProt P09483+P12390)", "assay": "Ability of compound to compete with 50 pM of 5-[125I]iodo-A-85,380 for receptor binding sites in rat brain membranes at room temperature", "type": "cell membranes", "units": {"Ki": "pM"}, "values": [{"smiles": "Fc1ccnc[n+]1-c1cc(OC[C@@H]2CCN2)cnc1Cl", "Ki": 8.8}, {"smiles": "Fc1cc(/C=C/c2cc(OC[C@@H]3CCCN3)cnc2Cl)ccn1", "Ki": 9.4}, {"smiles": "Clc1ncc(OC[C@@H]2CCN2)cc1-c1cccnc1", "Ki": 8.1}, {"smiles": "Clc1ncc(OC[C@@H]2CCN2)cc1/C=C/c1ccnc(Br)c1", "Ki": 5.2}, {"smiles": "Clc1ccc(-c2cc(OC[C@@H]3CCN3)cnc2Cl)cn1", "Ki": 4.5}, {"smiles": "Clc1ccc(OC[C@@H]2CCN2)cn1", "Ki": 34}, {"smiles": "Fc1cc(/C=C/c2cc(OC[C@@H]3CCN3)cnc2Cl)ccn1", "Ki": 3.1}, {"smiles": "Clc1ncc(OC[C@@H]2CCN2)cc1-c1ccnc(Br)c1", "Ki": 3.3}, {"smiles": "Clc1ncc(OC[C@@H]2CCCN2)cc1/C=C/c1ccnc(Br)c1", "Ki": 5.6}, {"smiles": "Fc1cc(-c2cc(OC[C@@H]3CCN3)cnc2Cl)ccn1", "Ki": 4.8}, {"smiles": "Brc1ncc(OC[C@@H]2CCN2)cc1-c1cccnc1", "Ki": 6.6}, {"smiles": "Fc1ncc(OC[C@@H]2CCN2)cc1-c1cccnc1", "Ki": 66}, {"smiles": "Clc1ncc(OC[C@@H]2CCN2)cc1/C=C/c1ccncc1", "Ki": 9}, {"smiles": "Fc1ccc(-c2cc(OC[C@@H]3CCN3)cnc2Cl)cn1", "Ki": 4.9}, {"smiles": "Ic1ncc(OC[C@@H]2CCN2)cc1-c1cccnc1", "Ki": 11.7}, {"smiles": "Fc1ncc(/C=C/c2cc(OC[C@@H]3CCN3)cnc2Cl)cc1Br", "Ki": 7.7}, {"smiles": "Fc1ccc(-c2cc(OC[C@@H]3CCCN3)cnc2Cl)cn1", "Ki": 17.9}, {"smiles": "Clc1ncc(OC[C@@H]2CCCN2)cc1-c1ccc(Br)nc1", "Ki": 19.5}, {"smiles": "Fc1ncc(-c2cc(OC[C@@H]3CCN3)cnc2Cl)cc1Br", "Ki": 4}, {"smiles": "Clc1ncc(OC[C@@H]2CCN2)cc1-c1ccc(Br)nc1", "Ki": 4.3}]}]}
